Assay results from US4578498A, “Phenylethylene derivatives and their use as drugs” (BASF Aktiengesellschaft, priority 1982, dated 1986).
Read-outs that look alike come from different tables or passages of the source. Each block holds one compound with its values, some of them ahead of it.

Assays:
[1] = test system: utriculi in the Rhino mouse; assay: Reduction of the number of utriculi in the Rhino mouse model; format: in vivo, Rhino mice; conditions: for inhibition in vivo at 0.1 % / inhibition in vivo at 0.2 %: read-out: Decrease in % (number of utriculi / cysts)
comedos = assay: Comedolytic activity on tar-induced comedos of rabbit ears; format: in vivo, albino rabbits; conditions: Oryctolagus cuniculus, 336 h, topical, read-out: Comedolytic activity in % (decrease in number of comedos vs control ear)
Method: The development of comedos was induced by one topical application of 0.5 ml per day, onto both ears of albino rabbits, of 5% of tar in Polyan® (ester of lanolin alcohol and linolenic acid, produced by Amerchol Corp., U.S.A.), the application being carried out on 5 successive days per week over a period of two weeks. Thereafter, the test substances in ethanol/propylene glycol (70:30, v/v, 0.5 ml) were applied topically onto the inner skin area of one ear of each rabbit once per day on 5 successive days per week over a period of two weeks. The second ear of each animal served as an untreated control.
After further treatment for 72 hours with the test substance, the rabbits were sacrificed. A skin sample of about 6 cm^2 was taken from each auricle just outside the oratory passage, and this sample was divided into sections of about 1 cm^2. These pieces of skin were immersed for 2 minutes in warm water at 60° C. The epidermis was carefully peeled off using the flat end of a spatula and a small forceps, and was placed, dermal side up, on the slide. After drying in air overnight, the test strips were assessed under a stereomicroscope. […] The comedos were recognizable as discrete, cylindrical to round keratose particles which were of similar appearance and whose size and number were proportional to the activity of the test substance. The comedolytic effect was determined as the decrease in the number of comedos, in %, compared with the control ear (cf. Table 2).

tracheal epithelium = assay: Elimination of keratinization in tracheal cultures (antitumor action); format: cell-based, hamster; conditions: Mesocricetus auratus, 240 h
Excerpt: The test model is used to determine the intrinsic property of the novel compounds of increasing the differentiation of epithelial cells. The great significance of this screening method in predicting the potential use of a new retinoid for the prevention of tumors in epithelial tissue is generally recognized. Moreover, it is known that every in vitro test system has disadvantages in respect of the prediction of in vivo activity. Apart from these basic restrictions, tracheal cell cultures are one of the most useful methods of determining the biological activity of novel retinoids.
The ability of the test substances to eliminate keratinization in a defined in vitro system was determined. Tracheae of hamsters at a very early stage of vitamin A deficiency were used for culture. […] Their average weight was from 47 to 52 g. The tracheal epithelium was in general slightly columnar or pavement-like and had only isolated areas of squamous metaplasia. Each trachea was opened along the membrane-like dorsal wall, from the larynx to the carina, and cultured in a serum-free medium (CMRL-1066 supplemented by 1.0 μg/ml of crystalline bovine insulin, 0.1 μg/ml of hydrocortisone hemisuccinate, 2mM of glutamine, 100 units/ml of penicillin and 100 μg/ml of streptomycin). The cultures were aerated with a mixture of 50% of oxygen, 45% of nitrogen and 5% of carbon dioxide, and the culture dishes were shaken gently to bring the tracheae into contact with the gas and the culture medium. All tracheae were initially kept for 3 days in the culture medium without the addition of retinoid. After this period, some tracheae were removed. […] The remaining tracheae were divided into groups, which were then treated with the following additives:
(a) The test substance dissolved in spectroscopically pure dimethylsulfoxide (the final concentration of dimethylsulfoxide in the culture medium was never greater than 0.1%).
(b) An equivalent amount of dimethylsulfoxide without a further additive.
The nutrient medium was changed three times per week. After culture for 10 days, the remaining tracheae were worked up by being fixed in 10% strength buffered formaldehyde solution and embedded in paraffin. […] Dose-effect curves of the novel compounds were recorded. Table 1 below gives the extrapolated molar doses which suppress keratinization in half the cultures (ED 50%).

[2] = test system: leukemia cells of patients having promyelocytic leukemia; assay: Induction of cell differentiation in promyelocytic leukemia cells; format: cell-based, human (patients)
[3] = test system: white male New Zealand rabbits; conditions: rabbit, in vivo
Method: 5. The toleration of the test substances after topical administration was determined in experiments with 6 white male New Zealand rabbits in each case. In the case of each test animal, an area of about 6 cm^2 on the back was shaved. The test substances were dissolved in ethanol/propylene glycol (70:30, v/v), and 0.2 ml of this solution was applied with an automatic micropipette on 9 successive days by carefully rubbing the solution into a particular point twice daily at 6-hour intervals.
Before each application in the morning, all test areas were assessed subjectively in respect of erythemas and scaling, a numerical scale from 0 to 3 being employed (0=no reaction, 1=mild, 2=moderate and 3=severe). The average erythema formation and scaling gives the relative irritant level of the test substances in comparison with vitamin A acid.

[4] = concentration 0.1%, Rhino mouse
[5] = concentration 0.1%, rabbit ear, two weeks
[6] = hamster tracheal culture, 10 days, serum-free, extrapolated from dose-effect curves, read-out: ED50 (molar dose which suppresses keratinization in half the cultures) (converted)
[7] = concentration 0.2%, Rhino mouse

Structure (SMILES): CCOC(=O)c1ccc(/C=C(\C)c2cc3c(cc2C)C(C)(C)CCC3(C)C)cc1 [Example 1, Ethyl E-4-[2-methyl-2-(1,1,4,4,6-pentamethyl-1,2,3,4-tetrahydronaphth-7-yl)-vinyl]-benzoate]
- inhibition in vivo at 0.1 % [1, 4]: 65%
- inhibition in vivo at 0.1 % (comedos; [5]): 75%

- IC50 (tracheal epithelium; [6]): 10 pM
- Erythema [3]: 2.8
- Scaling [3]: 2.7
Structure (SMILES): C/C(=C\c1ccc(C(=O)O)cc1)c1cc2c(cc1C)C(C)(C)CCC2(C)C [Example 2, E-4-[2-methyl-2-(1,1,4,4,6-pentamethyl-1,2,3,4-tetrahydronaphth-7-yl)-vinyl]-benzoic acid]
- inhibition in vivo at 0.1 % [1, 4]: 68%
- induction of cell differentiation to give mature granulocytes [2]: induce cell differentiation to give mature granulocytes
- inhibition in vivo at 0.1 % (comedos; [5]): 73%

- Erythema [3]: 2.0
- Scaling [3]: 1.7
Structure (SMILES): CCc1cc2c(cc1/C(C)=C/c1ccc(C(=O)O)cc1)C(C)(C)CCC2(C)C [Example 5, E4-[2-methyl-2-(1,1,4,4-tetramethyl-6-ethyl-1,2,3,4-tetrahydronaphth-7-yl)-vinyl]-benzoic acid]
- inhibition in vivo at 0.1 % [1, 4]: 69%
- inhibition in vivo at 0.1 % (comedos; [5]): 54%

Structure (SMILES): CCOC(=O)c1ccc(/C=C(\C)c2cc3c(cc2C(C)C)C(C)(C)CCC3(C)C)cc1 [Example 6, Ethyl E4-[2-methyl-2-(1,1,4,4-tetramethyl-6-isopropyl-1,2,3,4-tetrahydronaphth-7-yl)-vinyl]-benzoate]
- inhibition in vivo at 0.1 % [1, 4]: 59%
- inhibition in vivo at 0.1 % (comedos; [5]): 68%

- IC50 (tracheal epithelium; [6]): 10 pM
- Erythema [3]: 3.0
- Scaling [3]: 3.0
Structure (SMILES): C/C(=C\c1ccc(C(=O)O)cc1)c1cc2c(cc1C(C)C)C(C)(C)CCC2(C)C [Example 7, E4-[2-methyl-2-(1,1,4,4-tetramethyl-6-isopropyl-1,2,3,4-tetrahydronaphth-7-yl)-vinyl]benzoic acid]
- inhibition in vivo at 0.1 % [1, 4]: 62%
- inhibition in vivo at 0.1 % (comedos; [5]): 59%

- Erythema [3]: 1.4
- Scaling [3]: 1.0
Structure (SMILES): C/C(=C\c1ccc(C(=O)O)cc1)c1cc2c(cc1CC(C)C)C(C)(C)CCC2(C)C [Example 8, E4-[2-methyl-2-(1,1,4,4-tetra-methyl-6-(2-methylpropyl)-1,2,3,4-tetrahydronaphth-7-yl)-vinyl]-benzoic acid]
- inhibition in vivo at 0.1 % [1, 4]: 52%
- inhibition in vivo at 0.1 % (comedos; [5]): 62%

Structure (SMILES): C/C(=C/c1ccc(C(=O)O)cc1)c1cc2c(cc1C)C(C)(C)CCC2(C)C [Example 10, Z4-[2-methyl-2-(1,1,4,4,6-pentamethyl-1,2,3,4-tetrahydronaphth-7-yl)-vinyl]-benzoic acid]
- inhibition in vivo at 0.1 % [1, 4]: 49%
- inhibition in vivo at 0.1 % (comedos; [5]): 31%

Structure (SMILES): CCCc1cc2c(cc1/C(C)=C/c1ccc(C(=O)O)cc1)C(C)(C)CCC2(C)C [Example 11, E4-[2-methyl-2-(1,1,4,4-tetramethyl-6-propyl-1,2,3,4-tetrahydronaphth-7-yl)-vinyl]-benzoic acid]
- inhibition in vivo at 0.1 % [1, 4]: 59%
- inhibition in vivo at 0.1 % (comedos; [5]): 40%

Structure (SMILES): CCCCc1cc2c(cc1/C(C)=C/c1ccc(C(=O)O)cc1)C(C)(C)CCC2(C)C [Example 14, E4-[2-methyl-2-(1,1,4,4-tetramethyl-6-n-butyl-1,2,3,4-tetrahydronaphth-7-yl)-vinyl]-benzoic acid]
- inhibition in vivo at 0.1 % [1, 4]: 64%
- inhibition in vivo at 0.1 % (comedos; [5]): 79%

Structure (SMILES): CCCCCCCCc1cc2c(cc1/C(C)=C/c1ccc(C(=O)O)cc1)C(C)(C)CCC2(C)C [Example 15, E4-[2-methyl-2-(1,1,4,4-tetramethyl-6-n-octyl-1,2,3,4-tetrahydronaphth-7-yl)-vinyl]-benzoic acid]
- inhibition in vivo at 0.1 % [1, 4]: 59%
- inhibition in vivo at 0.1 % (comedos; [5]): 59%

Structure (SMILES): C/C(=C/c1ccc(C(=O)O)cc1)c1cc2c(cc1CC(C)C)C(C)(C)CCC2(C)C [Example 17, Z4-[2-methyl-2-(1,1,4,4-tetramethyl-6-(2-methylpropyl)-1,2,3,4-tetrahydronaphth-7-yl)-vinyl]-benzoic acid]
- inhibition in vivo at 0.2 % [1, 7]: 62%
- inhibition in vivo at 0.2 % (comedos; concentration 0.2%, rabbit ear, two weeks): 56%

Structure (SMILES): C/C(=C\c1ccc(C(=O)O)cc1)c1cc2c(cc1CC(C)C)C(C)(C)C(C)C2(C)C (centres unmarked) [Example 18, E4-[2-methyl-2-(1,1,2,3,3-pentamethyl-5-(2-methylpropyl)-indan-6-yl)-vinyl]-benzoic acid]
- inhibition in vivo at 0.2 % [1, 7]: 42%

Structure (SMILES): CCOC(=O)c1ccc(/C=C(\C)c2cc3c(cc2CC(C)C)C(C)(C)CCC3(C)C)cc1 [Example 19, ethyl E4-[2-methyl-2-(1,1,4,4-tetramethyl-6-(2-methylpropyl)-1,2,3,4-tetrahydronaphth-7-yl)-vinyl]-benzoate]
- inhibition in vivo at 0.1 % [1, 4]: 12%

Structure (SMILES): COC(=O)c1ccc(/C=C(\C)c2cc3c(cc2CC(C)C)C(C)(C)CCC3(C)C)cc1 [Example 20, methyl E4-[2-methyl-2-(1,4,4-tetramethyl-6-(2-methylpropyl)-1,2,3,4-tetrahydronaphth-7-yl)-vinyl]-benzoate]
- inhibition in vivo at 0.1 % [1, 4]: 6%

Structure (SMILES): C/C(=C\c1ccc(C(=O)O)cc1)c1cc2c(cc1CCC(C)C)C(C)(C)CCC2(C)C [Example 23, E4-[2-methyl-2-(1,1,4,4-tetra-methyl-6-(3-methylbutyl)-1,2,3,4-tetrahydronaphth-7-yl)-vinyl]-benzoic acid]
- inhibition in vivo at 0.2 % [1, 7]: 62%

Structure (SMILES): CCCCCCCCc1cc2c(cc1/C(C)=C/c1ccc(C(=O)O)cc1)C(C)(C)C(C)C2(C)C (centres unmarked) [Example 24, E4-[2-methyl-2-(1,1,2,3,3-pentamethyl-5-n-octyl-indan-6-yl)-vinyl]-benzoic acid]
- Decrease in % (number of utriculi / cysts) [1, 7]: 42%

Structure (SMILES): C/C(=C\c1ccc(C(=O)O)cc1)c1cc2c(cc1CCC(C)C)C(C)(C)C(C)C2(C)C (centres unmarked) [Example 25, E4-[2-methyl-2-(1,1,2,3,3-pentamethyl-5-(3-methylbutyl)-indan-6-yl)-vinyl]-benzoic acid]
- inhibition in vivo at 0.2 % [1, 7]: 60%

- IC50 (tracheal epithelium; [6]): 3 pM
Structure (SMILES): C/C(=C\c1ccc(C(=O)Nc2ccc(O)cc2)cc1)c1ccc2c(c1)C(C)(C)CCC2(C)C [Example 31, E-4-[2-methyl-2-(1,1,4,4-tetramethyl-1,2,3,4-tetrahydronaphth-7-yl)-vinyl]-benzoic acid 4-hydroxyanilide]

- IC50 (tracheal epithelium; [6]): 1 pM
Structure (SMILES): C/C(=C\c1ccc(C(=O)Nc2ccc(O)cc2)cc1)c1ccc2c(c1)C(C)(C)C(C)C2(C)C (centres unmarked) [Example 32, E-4-[2-methyl-2-(1,1,2,3,3-pentamethylindan-6-yl)-vinyl]-benzoic acid 4-ydroxyanilide]

- IC50 (tracheal epithelium; [6]): 1 pM
Structure (SMILES): C/C(=C\c1ccc(C(=O)Nc2nnn[nH]2)cc1)c1ccc2c(c1)C(C)(C)C(C)C2(C)C (centres unmarked) [Example 40, E-4-[2-methyl-2-(1,1,2,3,3,- pentamethylindan-6-yl)-vinyl]-N(tetrazol-5-yl)-benzamide]

Structure (SMILES): CC1=C(/C=C/C(C)=C/C=C/C(C)=C/C(=O)O)C(C)(C)CCC1 [Vitamin A acid, reference compound]
- IC50 (tracheal epithelium; read-out: ED50 (molar dose which suppresses keratinization in half the cultures)): 10 pM
- inhibition in vivo at 0.1 % ([1]; Mus musculus): 60%
- Erythema [3]: 3.0
- Scaling [3]: 3.0
- inhibition in vivo at 0.1 % (comedos): 67%
